Measurements from patent US20230416329A1, “A PEPTIDE WITH DISULFIDE BONDS AND INHIBITORY ACTIVITY AGAINST SERINE PROTEASES, DERIVED HYBRID PEPTIDES THEREOF, AND USES THEREOF” (INSTITUTE OF MATERIA MEDICA , CHINESE ACADEMY OF MEDICAL …, priority 2020, published 2023).
Bridge positions count the residues as written; N and C are the ends. Peptide text beside a SMILES is read from it.

Molecular target: α-chymotrypsin (Bos taurus, UniProt P00766)
Experiment: Chymotrypsin inhibitory activity of peptides (AAPFpNA hydrolysis; IC50, Ki, residual activity)
Format: biochemical
Settings: for Ki: Ki=IC50/(1+S/Km), Km 0.38 mM; for IC50: chymotrypsin 30 nM, AAPFpNA 0.5 mM
Procedure, shortened: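 Peptide preincubated 10 min at 37 °C with 30 nM α-chymotrypsin in 50 mM Tris-HCl pH 7.8, 20 mM CaCl2; 0.5 mM AAPFpNA then added and A405 read after 90 min. Residual activity versus controls gave IC50; Ki = IC50/(1+S/Km), with Km measured separately.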

For `CC[C@H](C)[C@@H]1NC(=O)[C@H](CO)NC(=O)[C@H](Cc2ccccc2)NC(=O)[C@H]([C@@H](C)O)NC(=O)CNC(=O)[C@H](Cc2ccccc2)NC(=O)CNC(=O)[C@@H](N)CSSC[C@@H](C(=O)N[C@@H](Cc2ccc(O)cc2)C(=O)NCC(=O)O)NC(=O)[C@H](CCC(N)=O)NC(=O)[C@@H]2CCCN2C(=O)[C@@H]2CCCN2C1=O` [CH7] (H-CGFGTFSIPPQCYG-OH; disulfide 1-12; N-terminus and C-terminus assumed), the “inhibitory activity against chymotrypsin (in words)” value (from here on “inhibitory activity”) was “certain inhibitory activity against chymotrypsin”, the Ki was 9.65 µM and the IC50 was 22.3 µM. For the same molecule, the “Residual activity of chymotrypsin” value (peptide 0.01 μM) was 100.9 ± 1.3%, the “Residual activity of chymotrypsin” value (peptide 0.1 μM) was 98.8 ± 3.9% and the “Residual activity of chymotrypsin” value (peptide 1 μM) was 101.7 ± 6.3%. For the same molecule, the “Residual activity of chymotrypsin” value (peptide 10 μM) was 77.7 ± 2.0%, the “Residual activity of chymotrypsin” value (peptide 25 μM) was 46.0 ± 1.0% and the “Residual activity of chymotrypsin” value (peptide 50 μM) was 25.8 ± 0.9%. The “Residual activity of chymotrypsin” value (peptide 100 μM) was 14.1 ± 0.9%, the “Residual activity of chymotrypsin” value (peptide 300 μM) was 4.1 ± 0.1% and the “Residual activity of chymotrypsin” value (peptide 1000 μM) was 1.2 ± 0.1%.
`CC[C@H](C)[C@@H]1NC(=O)[C@H](CO)NC(=O)[C@H](Cc2ccc(O)cc2)NC(=O)[C@H]([C@@H](C)O)NC(=O)[C@H](C)NC(=O)[C@H](C)NC(=O)CNC(=O)CNC(=O)[C@@H](N)CSSC[C@@H](C(=O)N[C@@H](Cc2ccccc2)C(=O)O)NC(=O)[C@H](CCCCN)NC(=O)[C@H](C)NC(=O)[C@@H]2CCCN2C1=O` [CH32] (H-CGGAATYSIPAKCF-OH; disulfide 1-13; N-terminus and C-terminus assumed) was tested, and the “inhibitory activity” value was “certain inhibitory activity”, the Ki was 2.76 µM and the IC50 was 6.38 µM. For the same molecule, the “Residual activity of chymotrypsin” value (peptide 0.01 μM) was 99.5 ± 0.1%, the “Residual activity of chymotrypsin” value (peptide 0.1 μM) was 100.2 ± 1.9% and the “Residual activity of chymotrypsin” value (peptide 1 μM) was 99.0 ± 2.0%. The “Residual activity of chymotrypsin” value (peptide 4 μM) was 90.1 ± 6.1%, the “Residual activity of chymotrypsin” value (peptide 6 μM) was 49.2 ± 2.7% and the “Residual activity of chymotrypsin” value (peptide 8 μM) was 40.8 ± 6.0%. The “Residual activity of chymotrypsin” value (peptide 25 μM) was 14.4 ± 1.1%, the “Residual activity of chymotrypsin” value (peptide 100 μM) was 2.2 ± 0.2% and the “Residual activity of chymotrypsin” value (peptide 300 μM) was 0.7 ± 0.1%.
With `CC[C@H](C)[C@@H]1NC(=O)[C@H](CO)NC(=O)[C@H](Cc2ccccc2)NC(=O)[C@H]([C@@H](C)O)NC(=O)[C@H](C)NC(=O)[C@H](Cc2ccccc2)NC(=O)CNC(=O)[C@@H](N)CSSC[C@@H](C(=O)N[C@@H](Cc2ccc(O)cc2)C(=O)NCC(=O)O)NC(=O)[C@H](CCC(N)=O)NC(=O)[C@@H]2CCCN2C(=O)[C@@H]2CCCN2C1=O` [CH12] (H-CGFATFSIPPQCYG-OH; disulfide 1-12) the IC50 was > 50 µM.
With `CC[C@H](C)[C@H](N)C(=O)N[C@H]1CSSC[C@@H](C(=O)N[C@H](C(=O)O)[C@@H](C)CC)NC(=O)[C@H](CCC(N)=O)NC(=O)[C@H](C)NC(=O)[C@@H]2CCCN2C(=O)[C@H]([C@@H](C)CC)NC(=O)[C@H](CO)NC(=O)[C@H](Cc2ccc(O)cc2)NC(=O)[C@H]([C@@H](C)O)NC1=O` [CH47] (H-ICTYSIPAQCI-OH; disulfide 2-10; N-terminus and C-terminus assumed) the “inhibitory activity” value was “good chymotrypsin inhibitory activity”, the Ki was 3.68 µM and the IC50 was 8.52 µM.
`CC[C@H](C)[C@@H]1NC(=O)[C@@H]2CCCN2C(=O)[C@@H]2CCCN2C(=O)[C@H]([C@@H](C)CC)NC(=O)[C@H](CO)NC(=O)[C@H](Cc2ccccc2)NC(=O)[C@H]([C@@H](C)O)NC(=O)[C@@H](NC(=O)[C@@H](NC(=O)CN)[C@@H](C)O)CSSC[C@@H](C(=O)N[C@@H](CC(N)=O)C(=O)N2CCC[C@H]2C(=O)N[C@@H](CC(N)=O)C(=O)O)NC1=O` [CH25] (H-GTCTFSIPPICNPN-OH; disulfide 3-11) gave a Ki of 0.12 µM and an IC50 of 0.28 µM.
In the case of `CC(C)C[C@H](NC(=O)[C@@H]1CSSC[C@H](NC(=O)[C@@H](N)CCCNC(=N)N)C(=O)N[C@@H](CC(=O)O)C(=O)N[C@@H](Cc2ccccc2)C(=O)N[C@@H](CO)C(=O)N[C@@H](Cc2c[nH]c3ccccc23)C(=O)N2CCC[C@H]2C(=O)N2CCC[C@H]2C(=O)N[C@@H](CCCNC(=N)N)C(=O)N1)C(=O)O` [CH42] (H-RCDFSWPPRCL-OH; disulfide 2-10; N-terminus and C-terminus assumed), the IC50 is reported as > 50 µM.
In the case of `CC[C@H](C)[C@@H]1NC(=O)[C@H](Cc2ccc(O)cc2)NC(=O)[C@H](C)NC(=O)[C@H](CCSC)NC(=O)[C@H](C)NC(=O)[C@H](CCC(=O)O)NC(=O)CNC(=O)[C@@H]2CCCN2C(=O)[C@@H](N)CSSC[C@@H](C(=O)N[C@@H](Cc2ccccc2)C(=O)O)NC(=O)[C@H](CO)NC(=O)[C@H](CCCNC(=N)N)NC1=O` [CH28] (H-CPGEAMAYIRSCF-OH; disulfide 1-12; N-terminus and C-terminus assumed), the IC50 is reported as > 50 µM.
`CC[C@H](C)[C@@H]1NC(=O)[C@H](CO)NC(=O)[C@H](Cc2ccccc2)NC(=O)[C@H]([C@@H](C)O)NC(=O)[C@H](C)NC(=O)[C@H](CO)NC(=O)CNC(=O)[C@@H](N)CSSC[C@@H](C(=O)N[C@@H](Cc2ccc(O)cc2)C(=O)NCC(=O)O)NC(=O)[C@H](CCC(N)=O)NC(=O)[C@@H]2CCCN2C(=O)[C@@H]2CCCN2C1=O` [CH13] (H-CGSATFSIPPQCYG-OH; disulfide 1-12; N-terminus and C-terminus assumed) was tested, and the “inhibitory activity” value was “good inhibitory activity”, the Ki was 2.43 µM and the IC50 was 5.62 µM.
`C[C@@H]1NC(=O)[C@@H](NC(=O)[C@@H](N)Cc2ccccc2)CSSC[C@@H](C(=O)N[C@@H](CCC(N)=O)C(=O)O)NC(=O)[C@H](CCC(N)=O)NC(=O)[C@@H]2CCCN2C(=O)[C@@H]2CCCN2C(=O)[C@H](CC(N)=O)NC(=O)[C@H](CO)NC(=O)[C@H](Cc2ccc(O)cc2)NC1=O` [CH43] (H-FCAYSNPPQCQ-OH; disulfide 2-10; N-terminus and C-terminus assumed) was tested, and the Ki was 3.97 µM and the IC50 was 9.2 µM.
`CC[C@H](C)[C@@H]1NC(=O)[C@H](CO)NC(=O)[C@H](Cc2ccc(O)cc2)NC(=O)[C@H]([C@@H](C)O)NC(=O)[C@H](C)NC(=O)[C@H](C)NC(=O)CNC(=O)[C@@H](N)CSSC[C@@H](C(=O)N[C@@H](Cc2ccccc2)C(=O)O)NC(=O)[C@H](CCCCN)NC(=O)[C@H](C)NC(=O)[C@@H]2CCCN2C1=O` [CH31] (H-CGAATYSIPAKCF-OH; disulfide 1-12; N-terminus and C-terminus assumed) was tested, and the “inhibitory activity” value was “certain inhibitory activity”, the Ki was 2.63 µM and the IC50 was 6.08 µM. The “Residual activity of chymotrypsin” value (peptide 0.01 μM) was 107.4 ± 5.6%, the “Residual activity of chymotrypsin” value (peptide 0.1 μM) was 104.3 ± 1.7% and the “Residual activity of chymotrypsin” value (peptide 1 μM) was 104.8 ± 2.6%. The “Residual activity of chymotrypsin” value (peptide 8 μM) was 42.5 ± 5.9%, the “Residual activity of chymotrypsin” value (peptide 10 μM) was 29.5 ± 5.1% and the “Residual activity of chymotrypsin” value (peptide 25 μM) was 12.7 ± 4.0%. For the same molecule, the “Residual activity of chymotrypsin” value (peptide 100 μM) was 2.6 ± 0.3%, the “Residual activity of chymotrypsin” value (peptide 300 μM) was 1.0 ± 0.1% and the “Residual activity of chymotrypsin” value (peptide 1000 μM) was 0.4 ± 0.0%.
With `NC(=O)CC[C@H](NC(=O)[C@@H]1CSSC[C@H](NC(=O)[C@@H](N)Cc2ccccc2)C(=O)N[C@@H](CC(N)=O)C(=O)N[C@@H](Cc2ccc(O)cc2)C(=O)N[C@@H](CO)C(=O)N[C@@H](CC(N)=O)C(=O)N2CCC[C@H]2C(=O)N2CCC[C@H]2C(=O)N[C@@H](CCC(N)=O)C(=O)N1)C(=O)O` [CH46] (H-FCNYSNPPQCQ-OH; disulfide 2-10; N-terminus and C-terminus assumed) the IC50 was > 50 µM.
